In patent publication US10765114B2, “4-amino-6-(pyridyl and 2-substitutedphenyl)-picolinates and 6-amino-2-(pyridyl and 2-substitutedphenyl)-pyrimidine-4-carboxylates and their use as herbicides” (Dow AgroSciences LLC, priority 2013, dated 2020):

Tests used:
Assay in all cases: Postemergence Herbicidal Activity in Direct Seeded Rice
Format in all cases: in vivo
[1] = test system: SCPJU: Japanese bulrush, Schoenoplectus juncoides; details: for Visual Growth Reduction (%) 21 Days After Application, SCPJU: postemergence, direct seeded rice; for GR50, SCPJU: Growth reduction of 50% of plant growth; for GR50, SCPJU / GR80, SCPJU: probit analysis; for GR80, SCPJU: Growth reduction of 80% of plant growth
From the text: (§1) Seeds or nutlets of the desired test plant species were planted in a soil matrix prepared by mixing a loam soil (43 percent silt, 19 percent clay, and 38 percent sand, with a pH of about 8.1 and an organic matter content of about 1.5 percent) and river sand in an 80 to 20 ratio. The soil matrix was contained in plastic pots with a surface area of 139.7 cm^2. When required to ensure good germination and healthy plants, a fungicide treatment and/or other chemical or physical treatment was applied. The plants were grown for 10-17 days in a greenhouse with an approximate 14-h photoperiod which was maintained at about 29° C. during the day and 26° C. during the night. Nutrients and water were added on a regular basis and supplemental lighting was provided with overhead metal halide 1000-Watt lamps as necessary. The plants were employed for testing when they reached the second or third true leaf stage.
(§2) A weighed amount, determined by the highest rate to be tested, of each test compound was placed in 25 mL glass vials and dissolved in a volume of 97:3 v/v acetone-DMSO to obtain 12× stock solutions. […] The concentrated stock solutions were added to the spray solutions so that the final acetone and DMSO concentrations were 16.2% and 0.5%, respectively. Spray solutions were diluted to the appropriate final concentrations with the addition of 10 mL of an aqueous mixture of 1.5% (v/v) Agri-dex crop oil concentrate. The final spray solutions contained 1.25% (v/v) Agri-dex crop oil concentrate. Compound requirements are based upon a 12 mL application volume at a rate of 187 L/ha. Formulated compounds were applied to the plant material with an overhead Mandel track sprayer equipped with 8002E nozzles calibrated to deliver 187 L/ha over an application area of 0.503 square meters (m^2) at a spray height of 18 inches (43 cm) above average plant canopy height. Control plants were sprayed in the same manner with the solvent blank.
(§3) The treated plants and control plants were placed in a greenhouse as described above and watered by sub-irrigation to prevent wash-off of the test compounds. After 20-22 days, the condition of the test plants, compared with that of the untreated plants, was determined visually and scored on a scale of 0 to 100 percent where 0 corresponds to no injury and 100 corresponds to complete kill and presented as indicated in Table A.
(§4) By applying the well-accepted probit analysis as described by J. Berkson in Journal of the American Statistical Society, 48, 565 (1953) and by D. Finney in “Probit Analysis” Cambridge University Press (1952), herbicidal injury of a specific compound at various rates can be used to calculate GR20, GR50, GR80 and GR90 values, which are defined as growth reduction factors that correspond to the effective dose of herbicide required to provide plant growth reduction (GR) of 20 percent, 50 percent, 80 percent and 90 percent, respectively. Probit analysis was applied to data collected from multiple dose rates of individual compounds utilizing the procedures explained in the following examples. The analysis of those dose rates is captured in the following tables

[2] = test system: SEBEX: hemp sesbania, Sesbania exaltata; details: for Visual Growth Reduction (%) 21 Days After Application, SEBEX: postemergence, direct seeded rice; for GR50, SEBEX: Growth reduction of 50% of plant growth; for GR50, SEBEX / GR80, SEBEX: probit analysis; for GR80, SEBEX: Growth reduction of 80% of plant growth
From the text: as §1, §2, §3, §4

[3] = test system: LEFSS: sprangletop including Chinese sprangletop (Leptochloa chinensis), green sprangletop (Leptochloa dubia); details: for Visual Growth Reduction (%) 21 Days After Application, LEFSS: postemergence, direct seeded rice; for GR50, LEFSS: Growth reduction of 50% of plant growth; for GR50, LEFSS / GR80, LEFSS: probit analysis; for GR80, LEFSS: Growth reduction of 80% of plant growth
From the text: as §1, §2, §3, §4

[4] = test system: BRAPP: broadleaf signalgrass, Brachiaria platyphylla; details: for Visual Growth Reduction (%) 21 Days After Application, BRAPP: postemergence, direct seeded rice; for GR50, BRAPP: Growth reduction of 50% of plant growth; for GR50, BRAPP / GR80, BRAPP: probit analysis; for GR80, BRAPP: Growth reduction of 80% of plant growth
From the text: as §1, §2, §3, §4

[5] = test system: ORYSS: Oryza sativa; details: for Visual Growth Reduction (%) 21 Days After Application, ORYSS: postemergence, direct seeded rice; for GR20, ORYSS: Growth reduction of 20% of plant growth, probit analysis
From the text: as §1, §2, §3, §4

[6] = test system: CYPSS: sedge including small-flower flatsedge (Cyperus difformis), yellow nutsedge (Cyperus esculentus), rice flatsedge (Cyperus iria); details: for Visual Growth Reduction (%) 21 Days After Application, CYPSS: postemergence, direct seeded rice; for GR50, CYPSS: Growth reduction of 50% of plant growth; for GR50, CYPSS / GR80, CYPSS: probit analysis; for GR80, CYPSS: Growth reduction of 80% of plant growth
From the text: as §1, §2, §3, §4

[7] = test system: ECHSS: including barnyardgrass, (Echinochloa crus-galli), junglerice, (Echinochloa colonum); details: for Visual Growth Reduction (%) 21 Days After Application, ECHSS: postemergence, direct seeded rice; for GR50, ECHSS: Growth reduction of 50% of plant growth; for GR50, ECHSS / GR80, ECHSS: probit analysis; for GR80, ECHSS: Growth reduction of 80% of plant growth
From the text: as §1, §2, §3, §4

Compound	Visual Growth Reduction (%) 21 Days After Application, SCPJU ([1]; 35 g ai/ha)	Visual Growth Reduction (%) 21 Days After Application, SCPJU ([1]; 70 g ai/ha)	GR50, SCPJU [1] [g ai/ha]	GR80, SCPJU [1] [g ai/ha]	Visual Growth Reduction (%) 21 Days After Application, SEBEX ([2]; 35 g ai/ha)	Visual Growth Reduction (%) 21 Days After Application, SEBEX ([2]; 70 g ai/ha)	GR50, SEBEX [2] [g ai/ha]	GR80, SEBEX [2] [g ai/ha]	Visual Growth Reduction (%) 21 Days After Application, LEFSS ([3]; 35 g ai/ha)	Visual Growth Reduction (%) 21 Days After Application, LEFSS ([3]; 70 g ai/ha)	GR50, LEFSS [3] [g ai/ha]	GR80, LEFSS [3] [g ai/ha]	Visual Growth Reduction (%) 21 Days After Application, BRAPP ([4]; 35 g ai/ha)	Visual Growth Reduction (%) 21 Days After Application, BRAPP ([4]; 70 g ai/ha)	GR50, BRAPP [4] [g ai/ha]	GR80, BRAPP [4] [g ai/ha]	Visual Growth Reduction (%) 21 Days After Application, ORYSS ([5]; 35 g ai/ha)	Visual Growth Reduction (%) 21 Days After Application, ORYSS ([5]; 70 g ai/ha)	GR20, ORYSS [5] [g ai/ha]	Visual Growth Reduction (%) 21 Days After Application, CYPSS ([6]; 35 g ai/ha)	also measured
COC(=O)c1nc(-c2ccc(C(F)(F)F)nc2)c(F)c(N)c1Cl [Compound 59, methyl 4-amino-5-chloro-3-fluoro-6′-(trifluoromethyl)-[2,3′-bipyridine]-6-carboxylate]	A (95-100)	A (95-100)	<17.5	<17.5	A (95-100)	A (95-100)	1	1	D (60-74)	B (85-94)	27	48	B (85-94)	B (85-94)	3	16	E (45-59)	E (45-59)	18	A (95-100)	Visual Growth Reduction (%) 21 Days After Application, CYPSS ([6]; 70 g ai/ha): A (95-100); GR50, CYPSS [6]: 2 g ai/ha; GR80, CYPSS [6]: 3 g ai/ha; Visual Growth Reduction (%) 21 Days After Application, ECHSS ([7]; 35 g ai/ha): B (85-94); Visual Growth Reduction (%) 21 Days After Application, ECHSS ([7]; 70 g ai/ha): B (85-94); GR50, ECHSS [7]: 3 g ai/ha; GR80, ECHSS [7]: 15 g ai/ha
COC(=O)c1nc(-c2ccc(C(F)(F)F)nc2)c(Cl)c(N)c1Cl [Compound 83]	A (95-100)	A (95-100)	<17.5	<17.5	A (95-100)	A (95-100)	2	5	B (85-94)	D (60-74)	27	53	A (95-100)	A (95-100)	6	16	E (45-59)	F (30-44)	23	A (95-100)	Visual Growth Reduction (%) 21 Days After Application, CYPSS ([6]; 70 g ai/ha): A (95-100); GR50, CYPSS [6]: 2 g ai/ha; GR80, CYPSS [6]: 3 g ai/ha; Visual Growth Reduction (%) 21 Days After Application, ECHSS ([7]; 35 g ai/ha): A (95-100); Visual Growth Reduction (%) 21 Days After Application, ECHSS ([7]; 70 g ai/ha): A (95-100); GR50, ECHSS [7]: 3 g ai/ha; GR80, ECHSS [7]: 9 g ai/ha
